How the values were obtained:
[1] = test system: intraocular pressure (IOP); assay: Effect on intraocular pressure (IOP); format: in vivo, rabbits; settings: 40 μl ophthalmic, 10 instillations daily for 10 days; FIG. 4
Protocol: IOP measurement was performed 1 hr after instillation of the last dose (results are represented in FIG. 4—Effect of ophthalmic steroids on-IOP in rabbits).

[2] = biological target: T1, Human Glucocorticoid receptor (Homo sapiens, UniProt P04150); assay: Human glucocorticoid receptor binding (in vitro), [3H]dexamethasone radioligand
T1 construct: expressed in transfected cells; host or cells: human HeLa cells
T1 sequence (P04150 1-777): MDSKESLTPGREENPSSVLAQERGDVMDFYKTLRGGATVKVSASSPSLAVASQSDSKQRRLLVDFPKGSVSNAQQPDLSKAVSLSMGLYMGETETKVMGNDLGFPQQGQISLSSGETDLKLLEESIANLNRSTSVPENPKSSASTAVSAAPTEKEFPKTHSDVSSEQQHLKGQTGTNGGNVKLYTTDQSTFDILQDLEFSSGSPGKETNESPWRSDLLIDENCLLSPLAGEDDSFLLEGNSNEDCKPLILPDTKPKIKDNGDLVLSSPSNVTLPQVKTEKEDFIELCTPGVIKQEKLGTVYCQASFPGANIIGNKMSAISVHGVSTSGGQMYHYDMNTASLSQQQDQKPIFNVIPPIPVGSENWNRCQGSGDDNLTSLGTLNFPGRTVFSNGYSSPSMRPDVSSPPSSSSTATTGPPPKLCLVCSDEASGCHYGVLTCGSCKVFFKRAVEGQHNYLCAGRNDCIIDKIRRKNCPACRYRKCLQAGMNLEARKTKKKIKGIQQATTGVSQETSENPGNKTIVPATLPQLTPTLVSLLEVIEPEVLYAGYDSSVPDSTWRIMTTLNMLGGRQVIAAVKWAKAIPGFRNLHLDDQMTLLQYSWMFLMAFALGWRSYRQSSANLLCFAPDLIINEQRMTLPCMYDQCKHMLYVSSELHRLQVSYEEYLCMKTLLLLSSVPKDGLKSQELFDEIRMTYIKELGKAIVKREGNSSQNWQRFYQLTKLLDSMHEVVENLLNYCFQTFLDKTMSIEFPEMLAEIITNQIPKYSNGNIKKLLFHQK
Protocol: The activity of test compounds on glucocorticoid receptor was assessed using radioligand binding assays.
The % inhibition was evaluated using a single concentration of test compound and the corresponding radiolabeled ligand. Results are presented as the percent inhibition of specific binding. The values are average of duplicate determinations for each concentration.

Aldosterone receptor = biological target: T2, Aldosterone receptor (Rattus norvegicus, UniProt P22199); assay: Steroidal receptor binding screen, aldosterone
T2 construct: aldosterone (Wistar rat kidney); from tissue; host or cells: Wistar rat kidney
T2 sequence (P22199 1-981): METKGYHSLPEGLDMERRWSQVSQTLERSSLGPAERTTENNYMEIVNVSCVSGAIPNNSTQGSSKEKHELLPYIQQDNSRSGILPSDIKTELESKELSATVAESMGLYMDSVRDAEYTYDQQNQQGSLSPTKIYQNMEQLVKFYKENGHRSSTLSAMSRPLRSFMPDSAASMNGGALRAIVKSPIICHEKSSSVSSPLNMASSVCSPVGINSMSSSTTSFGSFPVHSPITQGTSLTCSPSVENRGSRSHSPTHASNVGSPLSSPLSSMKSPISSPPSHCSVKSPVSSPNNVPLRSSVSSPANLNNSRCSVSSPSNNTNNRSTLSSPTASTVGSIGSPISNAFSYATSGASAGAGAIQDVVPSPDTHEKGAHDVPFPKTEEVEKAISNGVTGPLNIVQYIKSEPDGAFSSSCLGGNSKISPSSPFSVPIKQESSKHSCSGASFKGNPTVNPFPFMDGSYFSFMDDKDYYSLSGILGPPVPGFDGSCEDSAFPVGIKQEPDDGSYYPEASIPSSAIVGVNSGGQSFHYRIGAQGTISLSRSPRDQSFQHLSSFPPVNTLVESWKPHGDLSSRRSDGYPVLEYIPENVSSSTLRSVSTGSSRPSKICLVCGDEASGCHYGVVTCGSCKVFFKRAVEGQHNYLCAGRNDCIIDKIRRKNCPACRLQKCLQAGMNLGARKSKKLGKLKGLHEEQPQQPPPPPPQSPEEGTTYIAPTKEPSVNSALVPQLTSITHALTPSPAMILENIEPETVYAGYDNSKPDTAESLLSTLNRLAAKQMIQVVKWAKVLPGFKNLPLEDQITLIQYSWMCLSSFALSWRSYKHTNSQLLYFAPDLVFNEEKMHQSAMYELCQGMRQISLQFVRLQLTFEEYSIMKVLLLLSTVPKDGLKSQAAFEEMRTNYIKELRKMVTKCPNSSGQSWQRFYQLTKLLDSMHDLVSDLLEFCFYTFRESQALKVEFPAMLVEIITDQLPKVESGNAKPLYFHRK
From the text: For determination of binding to other related steroidal receptors by compound of the present invention cloned receptors from cells indicated in the parentheses were used: estrogen Erα/Erβ and progesterone (human recombinant insect Sf9), testosterone (human LnCAP) and aldosterone (Wistar rat kidney).

[3] = test system: liver glycogen deposition; assay: Liver glycogen deposition; format: in vivo, Male Sprague Dawley rats; settings: 3 mg/kg intratracheal, 2 doses 24 hrs apart, adrenalectomized rats
[4] = test system: ovalbumin-induced increase in intranasal pressure; assay: Ovalbumin-induced increase in intranasal pressure; format: in vivo, guinea pigs; settings: intranasal instillation 24 hr and 2 hr prior to ovalbumin challenge; FIG. 2
Protocol: Animals sensitized with ovalbumin as described above were used for experiments determining intranasal pressure. Intranasal instillation of compound of formula I, fluticasone propionate or placebo was done 24 hr and 2 hr prior to challenge with ovalbumin. The nasopharynx was catheterized with a PE cannula, one end of which was attached to pressure transducer and other to the nebulizer. Ovalbumin (5%) was nebulized into the nasal cavity for 10 min. The changes in intranasal pressure were recorded for following 45 min and differential pressure (dP) was calculated.

croton oil ear edema = assay: Croton oil ear edema; format: in vivo, Mice (male, CD-1); settings: 1 μg, applied to ear 2 hrs before croton oil
Protocol: Mice (male, CD-1) were made into different groups. A method similar to one reported in the literature was used. Test compounds were dissolved in pyridine-water-acetone (4:2:14) solution 10 μl of this solution of compound or vehicle solution was applied to the left ear of the mice. The right ear of each mouse was applied simultaneously with 10 μl of pyridine: water: acetone (4:2:14) solution. After 2 hrs of compound or vehicle application, 10 μl of croton oil solution was applied to the left ear of all animals. After 6 hr of croton oil treatment the animals were sacrificed; ears were excised and weighed separately.

SMILES: C[C@@H]1CC2C3C[C@H](F)C4=CC(=O)C=C[C@]4(C)[C@@]3(F)[C@@H](O)C[C@]2(C)[C@@]1(OC(=O)c1ccco1)C(=O)SCC#CCOC(=O)CC(C)(C)F (stereo partly drawn) [Formula I, S-[4-(3-Fluoro-3-methylbutyryloxy)but-2-ynyl]6α,9α-difluoro-17α-(furan-2-yl)carbonyloxy-11β-hydroxy-16α-methyl-3-oxoandrosta-1,4-diene-17β-carbothioate]
- intraocular pressure (IOP) [1]: insignificant (comparable to placebo)
- IC50 [2]: 2.3 nM
- Ki [2]: 1.24 nM
- potency and selectivity towards human glucocorticoid receptor ([2]; compared with aldosterone, estrogen, progesterone and testosterone receptors): good potency and selectivity
- IC50 (Aldosterone receptor): 328 nM
- Ki (Aldosterone receptor): 256 nM
- % Inhibition of thymus [3]: 26.15%
- inhibition of intranasal pressure [4]: equivalent inhibition
- Inhibition of ear edema (%) (croton oil ear edema): 75.5%
